The values below come from PubChem BioAssay (NCI).

Each structure is given as a SMILES string.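 A five-concentration, 48-hour dose response in 96-well plates underlies each endpoint, interpolated linearly between surrounding concentrations. TGI denotes the concentration required for complete inhibition of growth.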

Some test systems named below: A498 renal; CCRF-CEM leukemia; DU-145 prostate; HCC-2998 colon; HCT-116 colon; HL-60(TB) leukemia; HOP-62 NSCLC; M14 melanoma; MALME-3M melanoma; MDA-MB-231 breast; MDA-MB-435; MDA-N; NCI-H460 lung; OVCAR-4 ovarian; SK-MEL-2 melanoma; SK-OV-3 ovarian; SN12C renal; SNB-75 CNS; SW-620 colon; TK-10 renal.
Assay in all cases: growth of human tumour cells (NCI), 48 h

Take `CC/C(=N/O)c1ccc(Br)s1`: the TGI in the experiment with A498 renal was more than 100 µM; with CCRF-CEM leukemia, 97.1 µM; with DU-145 prostate, more than 100 µM; in the experiment with HCC-2998 colon, more than 100 µM; in the experiment on HCT-116 colon, more than 100 µM; in the experiment with HL-60(TB) leukemia, more than 100 µM. The TGI in the experiment on HOP-62 NSCLC, in the experiment with M14 melanoma, with MALME-3M melanoma, in the experiment on MDA-MB-231 breast, in the experiment with MDA-MB-435 and in the experiment with MDA-N was more than 100 µM each time. For the same compound, the TGI with NCI-H460 lung, with OVCAR-4 ovarian, with SK-MEL-2 melanoma, in the experiment with SK-OV-3 ovarian, with SN12C renal and in the experiment on SNB-75 CNS was more than 100 µM throughout. The TGI with SW-620 colon and in the experiment on TK-10 renal was more than 100 µM throughout.
As for `N#Cc1nc(COCCOCc2ccccc2)oc1N`, the TGI with A498 renal, in the experiment with CCRF-CEM leukemia, with DU-145 prostate, in the experiment on HCC-2998 colon, in the experiment on HCT-116 colon and with HL-60(TB) leukemia was more than 100 µM in each case. For the same compound, the TGI in the experiment with HOP-62 NSCLC, with M14 melanoma, with MALME-3M melanoma, in the experiment with MDA-MB-231 breast, in the experiment with MDA-MB-435 and in the experiment with MDA-N was more than 100 µM in each case. Moreover, the TGI in the experiment on NCI-H460 lung, in the experiment on OVCAR-4 ovarian, with SK-MEL-2 melanoma, in the experiment with SK-OV-3 ovarian, in the experiment on SN12C renal and with SNB-75 CNS was more than 100 µM throughout. Further, the TGI in the experiment with SW-620 colon and in the experiment with TK-10 renal was more than 100 µM throughout.
Consider `O=C(Nc1ccc2nc(-c3ccccc3)cn2c1)Oc1ccccc1`, for which the TGI in the experiment with A498 renal, in the experiment on CCRF-CEM leukemia, in the experiment with DU-145 prostate, in the experiment on HCC-2998 colon, in the experiment on HCT-116 colon and with HL-60(TB) leukemia was more than 100 µM in each case. Further, the TGI in the experiment with HOP-62 NSCLC was more than 100 µM; with M14 melanoma, more than 100 µM; in the experiment with MALME-3M melanoma, more than 100 µM; with MDA-MB-231 breast, more than 100 µM; in the experiment with MDA-MB-435 it was 47.5 µM; in the experiment with MDA-N, 41.9 µM. The TGI in the experiment on NCI-H460 lung was more than 100 µM; in the experiment on OVCAR-4 ovarian, more than 100 µM; in the experiment with SK-MEL-2 melanoma it was more than 100 µM; with SK-OV-3 ovarian it was more than 100 µM; in the experiment with SN12C renal, more than 100 µM; with SNB-75 CNS, 13.1 µM. The TGI in the experiment with SW-620 colon and in the experiment with TK-10 renal was more than 100 µM in each case.
In the case of `COc1cc(C2c3cc4c(cc3[C@H](OCCN(C)C)[C@@H]3COC(=O)C23)OCO4)cc(OC)c1O` (stereo not given in full), the TGI in the experiment on A498 renal was found to be 1.22 µM; in the experiment on CCRF-CEM leukemia, 1.73 µM; in the experiment on DU-145 prostate it was 0.549 µM; in the experiment on HCC-2998 colon, 2.55 µM; in the experiment with HCT-116 colon, 7.18 µM; in the experiment on HL-60(TB) leukemia, 0.118 µM. Besides, the TGI with HOP-62 NSCLC stood at 0.366 µM; in the experiment with M14 melanoma, 2.58 µM; with MALME-3M melanoma it was 1.73 µM; in the experiment on MDA-MB-231 breast it was 39.3 µM; in the experiment on MDA-MB-435, 16.9 µM; in the experiment with MDA-N, 30 µM. Also, the TGI in the experiment with NCI-H460 lung was 0.766 µM; with OVCAR-4 ovarian it was 4.97 µM; in the experiment with SK-MEL-2 melanoma, 2.44 µM; in the experiment with SK-OV-3 ovarian it was 1.31 µM; in the experiment on SN12C renal, 0.598 µM; with SNB-75 CNS it was 3.79 µM. Also, the TGI amounted to 3.4 µM in the experiment with SW-620 colon and 17.9 µM with TK-10 renal.
Take `CC(=O)c1cccc2c1CC1(C2)Cc2ccc3c(c2C1=O)CCC3` (stereo not given): the TGI in the experiment on A498 renal is more than 100 µM; with CCRF-CEM leukemia, more than 100 µM; with DU-145 prostate it was more than 100 µM; in the experiment with HCC-2998 colon it was 67.4 µM; in the experiment on HCT-116 colon, more than 100 µM; in the experiment with HL-60(TB) leukemia, 21.3 µM. Moreover, the TGI in the experiment on HOP-62 NSCLC, in the experiment with M14 melanoma, in the experiment with MALME-3M melanoma, in the experiment with MDA-MB-231 breast, in the experiment with MDA-MB-435 and with MDA-N was more than 100 µM in each case. Moreover, the TGI with NCI-H460 lung, in the experiment on OVCAR-4 ovarian, in the experiment on SK-MEL-2 melanoma, with SK-OV-3 ovarian, with SN12C renal and in the experiment with SNB-75 CNS was more than 100 µM throughout. In addition, the TGI in the experiment on SW-620 colon is more than 100 µM; in the experiment on TK-10 renal, 77.6 µM.
As to `CCOC(=O)C(Cl)(NC(=O)c1ccc(F)cc1)C(F)(F)F` (stereo not given), the TGI in the experiment on A498 renal, in the experiment on CCRF-CEM leukemia, with DU-145 prostate, in the experiment on HCC-2998 colon, in the experiment on HCT-116 colon and in the experiment on HL-60(TB) leukemia was more than 100 µM each time. Moreover, the TGI in the experiment on HOP-62 NSCLC, in the experiment with M14 melanoma, in the experiment on MALME-3M melanoma, in the experiment on MDA-MB-231 breast, with MDA-MB-435 and in the experiment with MDA-N was more than 100 µM throughout. Besides, the TGI in the experiment on NCI-H460 lung, in the experiment on OVCAR-4 ovarian, in the experiment on SK-MEL-2 melanoma, in the experiment on SK-OV-3 ovarian, with SN12C renal and in the experiment on SNB-75 CNS was more than 100 µM throughout. For the same compound, the TGI in the experiment with SW-620 colon and in the experiment with TK-10 renal was more than 100 µM in each case.
As to `CCCN(CCCCC(NC(C)=O)C(=O)NCc1ccccc1)C(=O)N(CCCl)N=O` (stereo not given), the TGI was more than 100 µM in the experiment on A498 renal; more than 100 µM in the experiment on CCRF-CEM leukemia; more than 100 µM with DU-145 prostate; more than 100 µM with HCC-2998 colon; more than 100 µM in the experiment with HCT-116 colon; more than 86 µM in the experiment with HL-60(TB) leukemia. Besides, the TGI was 78.3 µM in the experiment on HOP-62 NSCLC; more than 100 µM in the experiment with M14 melanoma; more than 100 µM with MALME-3M melanoma; more than 100 µM in the experiment on MDA-MB-231 breast; more than 100 µM with MDA-MB-435; more than 100 µM in the experiment with MDA-N. The TGI was more than 56.2 µM in the experiment with NCI-H460 lung; more than 100 µM in the experiment on OVCAR-4 ovarian; more than 100 µM with SK-MEL-2 melanoma; more than 100 µM in the experiment on SK-OV-3 ovarian; more than 100 µM in the experiment on SN12C renal; 90.8 µM in the experiment with SNB-75 CNS. For the same compound, the TGI in the experiment with SW-620 colon and with TK-10 renal was more than 100 µM each time.
